Source: ChEMBL document CHEMBL1135667, “Synthesis of halogen-substituted pyridyl and pyrimidyl derivatives of [3,2-c]pyrazolo corticosteroids: strategies for the development of glucocorticoid receptor mediated imaging agents” (J Med Chem, 2002)

biological target: T1, Glucocorticoid receptor (Homo sapiens) (UniProt P04150); conditions: HeLa
T1 sequence (whole entry): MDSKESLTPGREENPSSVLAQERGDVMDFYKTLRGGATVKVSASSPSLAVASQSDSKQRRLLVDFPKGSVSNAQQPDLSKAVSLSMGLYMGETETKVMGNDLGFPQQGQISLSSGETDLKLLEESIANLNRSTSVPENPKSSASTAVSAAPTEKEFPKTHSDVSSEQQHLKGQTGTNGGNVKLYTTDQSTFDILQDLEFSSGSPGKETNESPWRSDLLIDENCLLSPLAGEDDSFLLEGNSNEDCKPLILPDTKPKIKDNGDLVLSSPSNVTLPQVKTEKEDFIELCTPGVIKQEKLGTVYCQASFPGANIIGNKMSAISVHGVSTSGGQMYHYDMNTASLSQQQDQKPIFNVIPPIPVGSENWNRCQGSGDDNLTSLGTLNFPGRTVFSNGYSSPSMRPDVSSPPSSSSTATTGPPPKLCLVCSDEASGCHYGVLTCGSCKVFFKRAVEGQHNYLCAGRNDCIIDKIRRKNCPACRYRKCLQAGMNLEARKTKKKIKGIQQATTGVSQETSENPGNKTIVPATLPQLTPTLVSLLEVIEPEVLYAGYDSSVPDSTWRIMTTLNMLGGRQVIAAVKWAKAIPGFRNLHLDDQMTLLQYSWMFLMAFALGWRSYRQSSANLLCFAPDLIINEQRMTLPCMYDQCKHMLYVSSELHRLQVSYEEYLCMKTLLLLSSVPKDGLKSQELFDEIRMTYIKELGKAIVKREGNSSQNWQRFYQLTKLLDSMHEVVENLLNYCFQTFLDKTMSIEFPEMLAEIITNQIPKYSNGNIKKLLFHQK
Description: Relative transcriptional activation in HeLa cells expressing glucocorticoid receptor

Compared with `C[C@@H]1CC2C3CCC4=Cc5c(cnn5-c5ccc(F)cc5)CC4(C)C3C(O)CC2(C)C1(O)C(=O)CO` (some centres not stated), `C[C@@H]1CC2C3CCC4=Cc5c(cnn5-c5ccc(F)nc5)CC4(C)C3C(O)CC2(C)[C@@]1(O)C(=O)CO` (some centres not stated) is lower in RSA: 483 for the first, 436 for the second.

First: C[C@@H]1CC2C3CCC4=Cc5c(cnn5-c5cccnc5Cl)CC4(C)C3C(O)CC2(C)[C@@]1(O)C(=O)CO (some centres not stated)
Second: C[C@@H]1CC2C3CCC4=Cc5c(cnn5-c5cccnc5F)CC4(C)C3C(O)CC2(C)[C@@]1(O)C(=O)CO (some centres not stated)
The RSA of the first is lower: 97 for the first, 121 for the second.

First: C[C@@H]1CC2C3CCC4=Cc5c(cnn5-c5ccc(Cl)nc5)CC4(C)C3C(O)CC2(C)[C@@]1(O)C(=O)CO (some centres not stated)
Second: C[C@@H]1CC2C3CCC4=Cc5c(cnn5-c5cccnc5)CC4(C)C3C(O)CC2(C)[C@@]1(O)C(=O)CO (some centres not stated)
The RSA of the first is lower: 24 for the first, 255 for the second.

Compared with `C[C@@H]1C[C@H]2[C@@H]3CCC4=CC(=O)C=C[C@]4(C)[C@@]3(F)[C@@H](O)C[C@]2(C)[C@@]1(O)C(=O)CO`, `C[C@@H]1CC2C3CCC4=Cc5c(cnn5-c5ncccn5)CC4(C)C3C(O)CC2(C)[C@@]1(O)C(=O)CO` (some centres not stated) is lower in RSA: 100 for the first, 0 for the second.

Compared with `C[C@@H]1CC2C3CCC4=Cc5c(cnn5-c5ccccn5)CC4(C)C3C(O)CC2(C)[C@@]1(O)C(=O)CO` (some centres not stated), `C[C@@H]1CC2C3CCC4=Cc5c(cnn5-c5ccncn5)CC4(C)C3C(O)CC2(C)[C@@]1(O)C(=O)CO` (some centres not stated) is lower in RSA: 30 for the first, 0 for the second.

Compared with `C[C@@H]1CC2C3CCC4=Cc5c(cnn5-c5cnccc5Cl)CC4(C)C3C(O)CC2(C)[C@@]1(O)C(=O)CO` (some centres not stated), `C[C@@H]1CC2C3CCC4=Cc5c(cnn5-c5ccncc5)CC4(C)C3C(O)CC2(C)[C@@]1(O)C(=O)CO` (some centres not stated) is higher in RSA: 33 for the first, 135 for the second.
